How the values were obtained:
[1] = system: auxin signaling mutants; experiment: Effect of activators on lateral root density of auxin signaling mutants (Table 2); type: in vivo, Arabidopsis thaliana
Source text: Afb1, Afb2, Afb3 and the triple mutant Tirlafb2afb3 were described by Dhamasiri et al. (2005). Tir1 was described by Ruegger et al., (1998); 1aa28 by Rogg et al., (2001); Tir7-1 by Ruegger et al., (1997); the Cyp79b2b3 double mutant by Ljung et al. (2005); the arf7arf19 double mutant by Fukaki et al., (2005); Aux1 by Bennett et al., (1996); Xbat32 by Nodzon et al., (2004), Axr1-12 by Timpte et al., (1995), Slr1 by Fukaki et al., 2002 and Axr3-1 by Collet et al., (2000) and the mutants were obtained from the publishing authors.
For phenotypic analysis, all mutants were grown on vertically oriented square plates (Greiner Labortechnik, Austria) with solid medium derived from standard MS medium. The plates were put in a growth chamber under continuous light (110 μE.m2.s1 photosynthetically active radiation, supplied by cool-white fluorescent tungsten tubes; Osram) at 22° C. Three days after germination, the mutant plants were transferred to medium supplemented with compounds and were left to grow for another 7 days. After this, root length and number of lateral roots were counted using ImageJ 1.34 freeware.

[2] = system: auxin receptor mutant tir1; experiment: Effect of activators on the auxin receptor mutant tir1 compared with wild type; type: in vivo, Arabidopsis thaliana; settings: tir1 mutant vs wild type, FIG. 13
Source text: FIG. 13: Effect of activators on the auxin receptor mutant TIR1 compared with wild type.

[3] = system: genes involved in auxin biosynthesis, auxin transport, auxin signaling and cell cycle; experiment: Q-PCR transcript profiling of roots after compound treatment; type: in vivo, Arabidopsis thaliana; settings: 30 μM; 6 hrs or 24 hrs treatment
Procedure: FIG. 5: Transcript profiling of roots of wild-type Arabidopsis thaliana plants after 6 hrs or 24 hrs treatment with A2 (upper panel), A14 (middle panel) or A11 (lower panel) at a concentration of 30 μM.
RNA was extracted with the RNeasy kit. Poly(dT) cDNA was prepared from […] of total RNA with Superscript III reverse transcriptase (Invitrogen) and quantified on an LightCycler 480 apparatus (Roche) with the SYBR Green I Master kit (Roche) according to the manufacturers instructions. Target quantifications were performed with specific primer pairs designed with the Beacon Designer 4.0 (Premier Biosoft International). All PCRs were performed in triplicate. […] The primers used to quantify gene expression levels were: […]
Using Q-PCR, the expression of selected genes involved in auxin biosynthesis, auxin transport, auxin signaling and cell cycle was analyzed in response to compound treatment (FIG. 5).

[4] = system: Wild-type Arabidopsis thaliana; experiment: Dose-response analysis of lateral root density and root length; type: in vivo; settings: dose-response, FIG. 3
Procedure: FIG. 3: Dose-response analysis of class 1 (upper panel) and class 2 (lower panel) activators. Wild-type Arabidopsis thaliana seeds were germinated under standard conditions on agar plates. After 3 days of germination, seedlings were transferred to agar plates containing compound at different concentrations. Lateral root density was measured 10 days after germination. Bars represent standard errors.
FIG. 4: Dose-response analysis of A2, A11, A12, A14 and NAA. Wild-type Arabidopsis thaliana seeds were germinated under standard conditions on agar plates. After 3 days of germination, seedlings were transferred to agar plates containing compound at different concentrations and 1% DMSO. Plants transferred to agar plates containing 1% DMSO and no compound were used as controls. Lateral root density (left panels) and root length (right panels) were measured 10 days after germination. Bars represent standard errors.
For further phenotypic analysis, all plants were grown on vertically oriented square plates (Greiner Labortechnik, Austria) with solid medium derived from standard MS medium under the same conditions. 3 DAG plants were transferred to medium supplemented with compounds and were left to grow for another 7 days. After this, root length and number of LRs were counted using ImageJ 1.34 freeware.
As a subsequent step, the phenotypic effect of the 16 selected activators was determined in a dose-response analysis in which LR density (number of LRs per cm) was quantified (FIG. 3). Based upon potency and structure, two different classes of activators could be identified.

[5] = biological target: T1, auxin receptor TIR1 (Arabidopsis thaliana, UniProt Q38825+Q570C0); experiment: In vitro pull-down binding assay to auxin receptor TIR1; settings: in vitro binding assay (FIG. 2)
T1 construct: made in house; host or cells: wheat germ in vitro transcription/translation (IVTT) extract
T1 sequence (Q570C0 whole entry, other chains not shown): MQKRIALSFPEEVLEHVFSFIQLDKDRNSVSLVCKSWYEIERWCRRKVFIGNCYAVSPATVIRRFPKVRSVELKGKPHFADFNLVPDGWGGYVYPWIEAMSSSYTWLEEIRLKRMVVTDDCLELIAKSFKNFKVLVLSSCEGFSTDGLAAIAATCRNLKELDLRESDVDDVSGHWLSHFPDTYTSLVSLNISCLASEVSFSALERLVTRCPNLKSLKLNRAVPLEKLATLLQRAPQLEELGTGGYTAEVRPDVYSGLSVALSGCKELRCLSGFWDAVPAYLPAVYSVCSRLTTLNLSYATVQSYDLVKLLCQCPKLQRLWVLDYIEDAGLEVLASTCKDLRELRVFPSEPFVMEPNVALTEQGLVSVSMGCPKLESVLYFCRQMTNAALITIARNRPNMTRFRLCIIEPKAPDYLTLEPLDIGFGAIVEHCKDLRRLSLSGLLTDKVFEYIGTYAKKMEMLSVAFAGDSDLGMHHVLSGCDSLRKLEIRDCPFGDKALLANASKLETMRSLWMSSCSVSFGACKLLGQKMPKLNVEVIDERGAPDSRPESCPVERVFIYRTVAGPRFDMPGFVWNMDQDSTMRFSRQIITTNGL
Procedure: FIG. 2: In vitro binding assay to analyze binding of the 16 selected activators to the auxin receptor TIR1.
Pull-down assays with wheatgerm-expressed TIR1-Myc were performed by combining […] of IVTT reaction extract with […] of biotinylated domain II peptide and […] of EB containing 1 mg/ml BSA with auxin treatments as indicated. The assays were incubated for 30 min at 4° C. and recovered on streptavidin-agarose. The final processing of pull-down assays including electrophoresis, western transfer and blotting with anti-Myc antibodies has been described in Kepinski and Leyser, 2004.
Earlier studies have shown that sirtinol is metabolized in vivo to NAA (Dai et al., 2005) while IAA, NAA, 2,4-D act by binding directly to the auxin-receptor TIR1 (Kepinski and Leyser, 2005).

Question: How did the lateral root density ([1]; Afb1-1, 3 uM) turn out when `COc1cc(-c2nc3ccccn3c2N=Cc2cccc(Cl)c2Cl)ccc1O` [A10, 4-{3-[(2,3-dichlorobenzylidene)amino]imidazo[1,2-a]pyridin-2-yl}-2-methoxyphenol] was run?
Answer: 11.79 LR/cm

Question: And the lateral root density ([1]; Afb2-1, 3 uM)?
Answer: 15.90 LR/cm

Question: What about the lateral root density ([1]; Afb3-1, 3 uM) of the same compound?
Answer: 17.08 LR/cm

Question: And the lateral root density ([1]; Arf7Arf19, 3 uM)?
Answer: 0.00 LR/cm

Question: What about the lateral root density ([1]; Arf16, 3 uM) of the same compound?
Answer: 19.95 LR/cm

Question: And the lateral root density ([1]; Arf17, 3 uM)?
Answer: 10.80 LR/cm

Question: And the lateral root density ([1]; Axrt-12, 3 uM)?
Answer: 7.90 LR/cm

Question: And the lateral root density ([1]; Cyp79, 3 uM)?
Answer: 33.08 LR/cm

Question: What about the lateral root density ([1]; Iaa28-1, 3 uM) of the same compound?
Answer: 0.00 LR/cm

Question: And the lateral root density ([1]; Tir1-1, 3 uM)?
Answer: 0.77 LR/cm

Question: What about the lateral root density ([1]; Tir7-1, 3 uM) of the same compound?
Answer: 8.49 LR/cm

Question: What about the lateral root density ([1]; TirTM, 3 uM) of the same compound?
Answer: 0.00 LR/cm

Question: What about the lateral root density ([1]; Xbat32, 3 uM) of the same compound?
Answer: 8.37 LR/cm

Question: What about the “TIR1 dependence of the working of the compound” value [2] of the same compound?
Answer: strictly TIR1 dependent

Question: For `COc1ccccc1CNC(=O)C(C)Sc1ccc(Cl)cc1` (stereo not shown) [A14, 2-[(4-chlorophenyl)thio]-N-(2-methoxybenzyl)propanamide], which lateral root density ([1]; Afb1-1, 30 uM) is on record?
Answer: 24.29 LR/cm

Question: What about the lateral root density ([1]; Afb2-1, 30 uM) of the same compound?
Answer: 22.38 LR/cm

Question: And the lateral root density ([1]; Afb3-1, 30 uM)?
Answer: 30.09 LR/cm

Question: What about the lateral root density ([1]; Arf7Arf19, 30 uM) of the same compound?
Answer: 0.00 LR/cm

Question: What about the lateral root density ([1]; Arf16, 30 uM) of the same compound?
Answer: 32.75 LR/cm

Question: What about the lateral root density ([1]; Arf17, 30 uM) of the same compound?
Answer: 32.68 LR/cm

Question: And the lateral root density ([1]; Axrt-12, 30 uM)?
Answer: 34.01 LR/cm

Question: What about the lateral root density ([1]; Cyp79, 30 uM) of the same compound?
Answer: 33.25 LR/cm

Question: What about the lateral root density ([1]; Iaa28-1, 30 uM) of the same compound?
Answer: 20.71 LR/cm

Question: What about the lateral root density ([1]; Tir1-1, 30 uM) of the same compound?
Answer: 0.52 LR/cm

Question: And the lateral root density ([1]; Tir7-1, 30 uM)?
Answer: 33.41 LR/cm

Question: What about the lateral root density ([1]; TirTM, 30 uM) of the same compound?
Answer: 0.00 LR/cm

Question: And the lateral root density ([1]; Xbat32, 30 uM)?
Answer: 10.88 LR/cm

Question: And the “stage of LR initiation at which the effect on gene expression is exerted” value [3]?
Answer: early stages of LR initiation (6 h)

Question: What about the “TIR1 dependence of the working of the compound” value [2] of the same compound?
Answer: strictly TIR1 dependent

Question: What about the “potency as activator of LR development (LR density)” value [4] of the same compound?
Answer: most potent activators of class 2

Question: For `O=C(O)C1SCCN1c1ccccc1` (stereo not shown) [A15, 3-phenyl-1,3-thiazolidine-2-carboxylic acid], which “binding to TIR1” value [5] is on record?
Answer: could bind to TIR1
